In patent publication US10858322B2, “Process for preparing 1-isobutyryl-1′-((1-(4,4,4-trifluorobutyl)-4,5,6,7-tetrahydro-1H-benzo[D]imidazol-2-yl)methyl)spiro[azetidine-3,3′-indolin]-2′-one” (SHANDONG DANHONG PHARMACEUTICAL CO., LTD., priority 2015, dated 2020):
≈ marks a conversion by molar mass, not a printed value. Values belong to the compound of their own block, whether it stands above or below them.

Legend:
Hep2 cells = test: RSV long CPE assay, CC50 (in vitro toxicity); assay type: cell-based; conditions: conclusion from the CPE assay CC50
Protocol: (§1) RSV long CPE assay Experimental Purpose: The EC50 and CC50 values of anti-RSV respiratory syncytial virus compounds were detected by cytopathology. Experimental Materials: Cell Line: Hep2 Experimental Procedures and Methods: a) Cell Inoculation (Hep2 cell) 1) The cell culture medium was removed and washed with 10 mL of PBS; 2) The preheated trypsin was added to the cleaned culture flask and rotating the flask to allow the trypsin to uniformly cover the culture flask. And then sucked it into a 37° C., 5% CO2 incubator to digest. 3) Each T150 was suspended in 10 to 15 mL culture medium, 0.1 mL was taken and then diluted twice with trypan blue solution. […] The cells were centrifuged (300 rpm) and the cells were adhered to the wall and placed in a 37° C., 5% CO2 incubator overnight. b) Compound addition: 1) The compound dissolved in 100% DMSO was diluted in a half logarithm and added to the cell plate using an Echo liquid handler. To ensure that the final concentration of DMSO was 1%; [table] […] 2) CCK-8 (Dojindo-CK04-20, 6 μL/well) was added to 384 well plates with Multidrop® automatic dispenser. […] 4) The data were analyzed.

[1] = RSV long CPE assay, CC50 (in vitro toxicity); assay type: cell-based; conditions: human; Hep2 cells, 5 days, CCK-8 readout, n = 7
Protocol: as §1

[2] = tested on: RSV respiratory syncytial virus (Along strain); test: microbe, parasite or virus in culture; assay type: cell-based
Protocol: And then sucked it into a 37° C., 5% CO2 incubator to digest.
3) Each T150 was suspended in 10 to 15 mL culture medium, 0.1 mL was taken and then diluted twice with trypan blue solution.
2) CCK-8 (Dojindo-CK04-20, 6 μL/well) was added to 384 well plates with Multidrop® automatic dispenser.
4) The data were analyzed.

[3] = Solid physical stability of crystal form A under different temperature and humidity conditions; assay type: physicochemical; conditions: 10th day
Protocol: The X-Ray Powder Diffraction method is as follows: Instrument: Bruker D8 ADVANCE X-Ray diffractometer; Target: Cu: K-Alpha; Wavelength λ=1.54179 Å; Tube Voltage: 40 kV; Tube Current: 40 mA; Scanning scope: 4-40°; Sample Rotation speed: 15 rpm; Scanning speed: 10°/min. […] On the tenth day, all samples were removed and returned to room temperature. The appearance changes of samples were observed, and the crystal form of samples was detected by XRPD.

[4] = Approximate solubility test of crystal form A; assay type: physicochemical; conditions: thermodynamic from solid, room temperature (20 to 30° C.)
[5] = Stability experiment of crystal form A in different solvents (XRPD); assay type: physicochemical; conditions: 2 days
Protocol: The X-Ray Powder Diffraction method is as follows:
Instrument: Bruker D8 ADVANCE X-Ray diffractometer; Target: Cu: K-Alpha; Wavelength λ=1.54179 Å; Tube Voltage: 40 kV; Tube Current: 40 mA; Scanning scope: 4-40°; Sample Rotation speed: 15 rpm; Scanning speed: 10°/min.
The mixture was stirred at 40° C. If the compound was completely dissolved, the sample was allowed to cool to room temperature, and if the solid was precipitated, the mixture was continued to stir; and if the sample remained in solution, the solvent was naturally evaporated to remove. After all the suspensions were stirred for 2 days, the solids in all samples were collected and XRPD was used to detect the crystal form state.

[6] = 0 day (−20° C. Sealed Storage) (Control Sample)
[7] = 25° C./92.5% Relative Humidity (Open)
[8] = 60° C./75% Relative Humidity (Open)

- EC50 ([2]; human respiratory syncytial virus, HEp-2, 120 h, Hep2 cells, RSV A long strain, 5 days, CCK-8 readout, n = 7, read-out: CPE assay EC50): 7 nM
Compound: CC(C)C(=O)N1CC2(C1)C(=O)N(Cc1nc3c(n1CCCC(F)(F)F)CCCC3)c1ccccc12 [Compound of formula (I), 1-Isobutyryl-1′-((1-(4,4,4-trifluorobutyl)-4,5,6,7-tetrahydro-1H-benzo[d]imidazol-2-yl)methyl)spiro[azetidine-3,3′-indolin]-2′-one]
- cytotoxicity (Hep2 cells): no cytotoxicity
- CC50 at 5 days [1]: > 100000 nM
- activity in vitro compared with BMS433771 ([2]; conclusion from the CPE assay): better activity in vitro

- Character [3, 6]: White Powder
- Crystal Form [3, 6]: Crystal Form A
- Character [3, 7]: White Powder
- Crystal Form [3, 7]: Crystal Form A
- Character ([3]; 60° C. (Open)): White Powder
- Crystal Form ([3]; 60° C. (Open)): Crystal Form A
- Character [3, 8]: White Powder
- Crystal Form [3, 8]: Crystal Form A
- solubility ([4]; acetone-water (1:2), aqueous with cosolvent or surfactant or cyclodextrin, Acetone-H2O (1:2)): < 2 mg/mL
- solubility ([4]; acetonitrile-water (1:1), aqueous with cosolvent or surfactant or cyclodextrin, Acetonitrile-H2O (1:1)): 46 to 58 mg/mL (≈ 94.2 to 119 mM)
- solubility ([4]; ethanol-water (1:1), aqueous with cosolvent or surfactant or cyclodextrin, Ethanol-H2O (1:1)): 2 to 2.7 mg/mL (≈ 4.09 to 5.53 mM)
- solubility ([4]; ethanol-water (3:1), aqueous with cosolvent or surfactant or cyclodextrin, Ethanol-H2O (3:1)): 22 to 24.5 mg/mL (≈ 45 to 50.1 mM)
- solubility ([4]; isopropanol-water (1:1), aqueous with cosolvent or surfactant or cyclodextrin, Isopropanol-H2O (1:1)): 2.5 to 3 mg/mL (≈ 5.12 to 6.14 mM)
- solubility ([4]; methanol-water (1:1), aqueous with cosolvent or surfactant or cyclodextrin, Methanol-H2O (1:1)): < 2 mg/mL
- solubility ([4]; methanol-water (3:1), aqueous with cosolvent or surfactant or cyclodextrin, Methanol-H2O (3:1)): 45 to 56.5 mg/mL (≈ 92.1 to 116 mM)
- solubility ([4]; organic solvent or mixture, 2-Butanone): 56.9 to 75.8 mg/mL (≈ 116 to 155 mM)
- solubility ([4]; organic solvent or mixture, 2-Methyltetrahydrofuran): 45 to 56.7 mg/mL (≈ 92.1 to 116 mM)
- solubility ([4]; organic solvent or mixture, Acetone): 45.9 to 57.4 mg/mL (≈ 94 to 117 mM)
- solubility ([4]; organic solvent or mixture, Acetonitrile): 42 to 53.6 mg/mL (≈ 86 to 110 mM)
- solubility ([4]; organic solvent or mixture, Cyclohexane): < 2 mg/mL
- solubility ([4]; organic solvent or mixture, Dioxane): 45 to 56.5 mg/mL (≈ 92.1 to 116 mM)
- solubility ([4]; organic solvent or mixture, Ethanol): 42 to 52.5 mg/mL (≈ 86 to 107 mM)
- solubility ([4]; organic solvent or mixture, Ethyl acetate): 29 to 34 mg/mL (≈ 59.4 to 69.6 mM)
- solubility ([4]; organic solvent or mixture, Isopropanol): 13.9 to 20.9 mg/mL (≈ 28.5 to 42.8 mM)
- solubility ([4]; organic solvent or mixture, Isopropyl acetate): 18 to 20.5 mg/mL (≈ 36.8 to 42 mM)
- solubility ([4]; organic solvent or mixture, Methanol): 115 to 231 mg/mL (≈ 235 to 473 mM)
- solubility ([4]; organic solvent or mixture, Methyl isobutyl ketone): 22.9 to 25.5 mg/mL (≈ 46.9 to 52.2 mM)
- solubility ([4]; organic solvent or mixture, Methyl tert-butyl ether): 3 to 3.7 mg/mL (≈ 6.14 to 7.57 mM)
- solubility ([4]; organic solvent or mixture, Tetrahydrofuran): 113 to 226 mg/mL (≈ 231 to 463 mM)
- solubility ([4]; organic solvent or mixture, Toluene): 28 to 32.5 mg/mL (≈ 57.3 to 66.5 mM)
- solubility ([4]; organic solvent or mixture, n-Butyl alcohol): 25.9 to 29.5 mg/mL (≈ 53 to 60.4 mM)
- solubility ([4]; organic solvent or mixture, n-Heptane): < 2 mg/mL
- solubility ([4]; water, H2O): < 2 mg/mL
- Result (crystal form by XRPD) ([5]; 2-Methyltetrahydrofuran, stirred at 40° C.): Crystal Form A
- Result (crystal form by XRPD) ([5]; Acetone, stirred at 40° C.): Crystal Form A
- Result (crystal form by XRPD) ([5]; Acetone:water = 1:2, stirred at 40° C.): Crystal Form B
- Result (crystal form by XRPD) ([5]; Dioxane, stirred at 40° C.): Crystal Form A
- Result (crystal form by XRPD) ([5]; Ethanol, stirred at 40° C.): Crystal Form A
- Result (crystal form by XRPD) ([5]; Ethanol:water = 3:1, stirred at 40° C.): Crystal Form B
- Result (crystal form by XRPD) ([5]; Ethyl acetate, stirred at 40° C.): Crystal Form A
- Result (crystal form by XRPD) ([5]; Methanol:water = 3:1, stirred at 40° C.): Crystal Form A
- Result (crystal form by XRPD) ([5]; Toluene, stirred at 40° C.): Crystal Form A
Compound: CC(C)C(=O)N1CC2(C1)C(=O)N(Cc1nc3c(n1CCCC(F)(F)F)CCCC3)c1ccccc12 [Crystal Form A, 1-Isobutyryl-1′-((1-(4,4,4-trifluorobutyl)-4,5,6,7-tetrahydro-1H-benzo[d]imidazol-2-yl)methyl)spiro[azetidine-3,3′-indolin]-2′-one]
